This assay addresses T1, kynurenine-3-hydroxylase (Rattus norvegicus, UniProt O88867).
T1 construct: Rat liver mitochondrial extract was used as enzymatic preparation for this assay; from tissue; host or cells: rat liver mitochondrial extract
Briefly: Kynurenine-3-hydroxylase assay in rat liver (radiometric, release of tritiated water, mitochondrial extract). The class given is biochemical. The following applies: 37°C, 30 min, 0.025 mM L-kynurenine, read-out: KYN-3-OH inhibition (IC50) Liver. As to the method: Kynurenine-3-hydroxylase assay in rat liver
The assay for kynurenine 3-hydroxylase was based on enzymatic synthesis of tritiated water during hydroxylation reaction. Radiolabelled water was quantified following selective adsorption of the isotopic substrate and its metabolites with active charcoal.
Rat liver mitochondrial extract was used as enzymatic preparation for this assay.
The assay for kynurenine 3-hydroxylase activity was carried out at 37°C for a time of 30 min. The reaction mixture of a total volume of […] was constituted of 44 mg of suspended extract, 100 mM Tris/Cl buffer pH 8.1, 10 mM EDTA, 100mM KCl, 0.8 mM NADPH, 0.025 mM L-kynurenine, 0.5 mCi L-(3,5-^3H)Kynurenine (10 Ci/mmol) and […] of different concentration of inhibitor solutions. After the incubation the reaction was terminated by the addition of 1 mL of 7.5% (w/v) activated charcoal, vortexed and centrifugated for 7 min.
A […] of supernatant was counted by scintillation spectroscopy in 5 ml of liquid scintillation.

This is an account of results in patent publication EP0922044B1, “PYRROLO(3,2-C) QUINOLINE DERIVATIVES” (PHARMACIA & UPJOHN S.p.A., priority 1996, dated 1998).

Usually IC50 stands for the concentration that gives 50% inhibition.

T1 sequence (O88867 whole entry): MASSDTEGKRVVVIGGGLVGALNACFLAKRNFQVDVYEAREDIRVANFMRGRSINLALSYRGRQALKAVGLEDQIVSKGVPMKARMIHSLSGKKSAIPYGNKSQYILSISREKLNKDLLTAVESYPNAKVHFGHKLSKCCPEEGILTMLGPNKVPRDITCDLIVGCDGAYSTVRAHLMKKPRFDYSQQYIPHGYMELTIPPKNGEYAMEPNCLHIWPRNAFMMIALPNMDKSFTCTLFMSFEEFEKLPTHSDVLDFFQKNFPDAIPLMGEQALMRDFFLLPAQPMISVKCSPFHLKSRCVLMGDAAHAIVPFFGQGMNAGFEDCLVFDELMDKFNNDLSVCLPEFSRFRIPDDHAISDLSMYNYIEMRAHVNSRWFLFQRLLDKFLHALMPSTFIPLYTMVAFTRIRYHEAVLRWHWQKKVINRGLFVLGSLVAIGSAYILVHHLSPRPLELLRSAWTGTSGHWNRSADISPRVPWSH

`Cc1c[nH]c2c1c(C(=O)O)nc1ccc(Cl)cc12` [FCE 29370, 8-chloro-3-methyl-1H-pyrrolo[3,2-c] quinoline-4-carboxylic acid]: the IC50 is 61 µM.

For `O=C(O)c1nc2cc(Cl)ccc2c2[nH]cc(-c3ccccc3)c12` [FCE 29464, 7-chloro-3-phenyl-1H-pyrrolo[3,2-c] quinoline-4-carboxylic acid], the 50% inhibitory concentration (IC50) was determined as 34 µM.
